From patent US7312031B1, “Alpha-complementation viral fusion assay” (The Salk Institute for Biological Studies, priority 2002, dated 2007)

Key:
[1] = tested on: fusion of 293T.CD4.Ω/CCR5 with 293T/ADA; assay: alpha-complementation fusion assay, 293T.CD4.Ω/CCR5 with 293T/ADA; format: cell-based, human; conditions: FIG. 7-9, ADA Env (CCR5-specific)
Method: FIG. 7 depicts the fusion of 293T.CD4.Ω/CCR5 with 293T/ADA in the presence of TAK-779.
293T (ATCC cat #CRL-1573) or HeLa (ATCC cat #CCL-2) cells (2.5×10^6) were seeded in 10 cm plates 24 hours prior to transfection. The next morning, cells were transfected with 21 μg of DNA, 7 μg pSCTZ-alpha-N85, 7 μg pRSV-Rev (Hope et al., Proc. Nat'l. Acad. Sci. U.S.A. 87: 7787-91 (1990)) and 7 μg of envelope expression vector (pSV-ADA, pSV-JRFL (Deng et al., Nature 381: 661-666 (1996)), or pCAGGS-SF33 (York-Higgins et al., J. Virol. 64: 4016-4020 (1990)). […]
Remove the plates from the water bath, spin 4000 rpm (Eppendorf tabletop centrifuge) for 1 minute to firmly pellet cells, aspirate medium, and add 100 μl of Galacto-Star lysis buffer (Perkin-Elmer). […] After 60 minutes, read β-gal activity in plates in a Packard TopCount luminometer for 15 s/well. […]
Two days later, remove the transfected cells from plates by incubating with phosphate-buffered saline containing 5 mM EDTA. The cells are then counted on hemocytometer. […]
After four hours, read β-gal activity as in Example 1.

[2] = tested on: fusion of 293T.CD4.Ω with 293T/SF33; assay: alpha-complementation fusion assay, 293T.CD4.Ω with 293T/SF33; format: cell-based, human; conditions: FIG. 5 and 6; SF33 Env (CXCR4-specific); 293T.CD4.Ω stable line
Method: Remove the plates from the water bath, spin 4000 rpm (Eppendorf tabletop centrifuge) for 1 minute to firmly pellet cells, aspirate medium, and add 100 μl of Galacto-Star lysis buffer (Perkin-Elmer). Mix well and incubate at room temperature for 5 minutes. Spin lysates 5 minutes at 4000 rpm and transfer 10 μl to a black 96-well plate (Costar). Add 100 μl of Galacto-Star substrate using a multi-channel pipettor. After 60 minutes, read β-gal activity in plates in a Packard TopCount luminometer for 15 s/well.
Transfect 293 cells with expression vector for HIV envelope protein, B-gal-α and HIV-1 Rev. Vectors used express CCR5-specific Envs (JFRL, ADA) or CXCR4-specific Envs (SF33 or JC2) driven by the cytomegalovirus promoter. Transfect the cells by lipofection or calcium phosphate standard methods.
Harvest 293-CD4.CCR5.omega cells with PBS/EDTA and count.
Prepare a microtiter plate by adding 2.5×10^5 293-CD4.CCR5.omega cells to each well with a multi-channel pipettor or robot in a volume of 50 μl of medium. Add inhibitors at different concentrations to each of the wells, in duplicate. […]

SMILES | inhibition of fusion reaction [1] | inhibition of fusion reaction [2]
Cc1ccc(-c2ccc3c(c2)C=C(C(=O)Nc2ccc(C[N+](C)(C)C4CCOCC4)cc2)CCC3)cc1.[Cl-] [TAK-779] | inhibits the fusion reaction in a concentration-dependent manner | 
c1cc(CN2CCCNCCNCCCNCC2)ccc1CN1CCCNCCNCCCNCC1 [AMD3100] |  | inhibits the fusion reaction in a concentration-dependent manner
